These results are taken from patent USRE31731E, “Herbicidal 4-trifluoromethyl-4-nitrodiphenyl ethers” (priority 1978, dated 1984).

Common to all, as to assay type: in vivo
In data set [1] the test system is Monocots. As to the kind of experiment: Herbicidal activity, postemergence, monocot weeds (Table II). The conditions noted are these: post-emergence, 336 h, about 2 weeks, read-out: % control (percent of plants killed); for pest or weed control at 2241.7 g/ha: 2 lb./A.; for pest or weed control at 4483.4 g/ha: 4 lb./A. The method, boiled down:
(§1)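 Value is mean percent kill, judged roughly 2 weeks post-treatment. Acetone/water spray at 50 gal/A, given either right after sowing in soil flats (preemergence) or once seedlings were 2 weeks old (postemergence); rates in lb/A.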

Data set [2] relates to Dicots. The experiment in a line: Herbicidal activity, preemergence, dicot weeds (Table II). The conditions noted are these: pre-emergence, 336 h, about 2 weeks, read-out: % control (percent of plants killed); for pest or weed control at 2241.7 g/ha: 2 lb./A.; for pest or weed control at 4483.4 g/ha: 4 lb./A. The method, boiled down:
(§2)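 Plants were scored roughly 2 weeks post-treatment for percent kill (average percent control). Treatment was an acetone–water spray in 50 gal/acre carrier at the listed pounds per acre, applied either immediately after sowing or to 2-week-old seedlings.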

Data set [3] concerns Dicots. The experiment in a line: Herbicidal activity, postemergence, dicot weeds (Table II). The conditions noted are these: post-emergence, 336 h, about 2 weeks, read-out: % control (percent of plants killed); for pest or weed control at 2241.7 g/ha: 2 lb./A.; for pest or weed control at 4483.4 g/ha: 4 lb./A. The method in brief: as §2
The next data set concerns peanuts. As to the kind of experiment: Crop tolerance, peanuts. The conditions noted are these: 50% or less kill of crop at rates giving more than 50% kill of weeds. As to the method: (§3) The following test procedure is employed. Seeds of selected crops and weeds are planted in soil in flats. For preemergence tests, the flats are treated with the test compound immediately after the planting. For postemergence tests, the seeds are allowed to germinate, and after 2 weeks the flats are treated with the test compound. The compound to be evaluated is dissolved in acetone, diluted with water, and sprayed over the flats using a carrier volume equivalent to 50 gallons per acre at the rate of application (pounds per acre, lb/A.) specified in the tables. About 2 weeks after the application of the test compound, the state of growth of the plants is observed and the phytotoxic effect of the compound is evaluated. Table II gives the average percent control achieved by the test compounds in terms of the percent of the plants which are killed by the compounds.
(§4) Following the general test procedure of Example 73, diphenyl ethers are evaluated for significant tolerance (as shown by 50% or less kill of the test crop at levels of application which give more than 50% kill of many or all of the weeds of Example 73) towards some or all of the following common agronomic crops (not all compounds tested against all crops): alfalfa, snapbeans, corn, cotton, cucumbers, peanuts, rape, rice, safflower, soybeans, tomatoes, and wheat.

In the next data set the test system is rice. The experiment in a line: Crop tolerance, rice. The note with it: 50% or less kill of crop at rates giving more than 50% kill of weeds. As to the method: as §3, §4
The next data set relates to wheat. As to the kind of experiment: Crop tolerance, wheat. The conditions noted are these: 50% or less kill of crop at rates giving more than 50% kill of weeds. As to the method:
as §3, §4

The test system of the next data set is soybeans. As to the kind of experiment: Crop tolerance, soybeans. The note with it: 50% or less kill of crop at rates giving more than 50% kill of weeds. As to the method: as §3, §4
The test system of data set [4] is Monocots. As to the kind of experiment: Herbicidal activity, preemergence, monocot weeds (Table II). The conditions noted are these: pre-emergence, 336 h, about 2 weeks, read-out: % control (percent of plants killed); for pest or weed control at 2241.7 g/ha: 2 lb./A.; for pest or weed control at 4483.4 g/ha: 4 lb./A. The method, boiled down: as §1
A further data set deals with corn. As to the kind of experiment: Crop tolerance, corn. The note with it: 50% or less kill of crop at rates giving more than 50% kill of weeds. As for the experimental part:
as §3, §4

The mark [5] stands for this setting: postemergence or on transplanted rice.

Take `O=C(O)c1cc(Oc2ccc(C(F)(F)F)cc2Cl)ccc1[N+](=O)[O-]` [Example 48, 2-Chloro-α,α,α-trifluoro-p-tolyl-3-carboxy-4-nitrophenyl ether]: the pest or weed control at 2241.7 g/ha in the data set with Monocots [1] came out at 84%; in the data set on Dicots [2], 100%; in the data set with Dicots [3], 97%; in the data set with Monocots [4] it was 100%. Further, the pest or weed control at 4483.4 g/ha in the data set with Monocots [1] was 75%; in the data set with Dicots [2], 97%; in the data set on Dicots [3], 100%; in the data set on Monocots [4] it was 99%. Also, the Tolerance to peanuts entry in the data set with peanuts (postemergence) and with peanuts (preemergence) was “Tolerance” each time. Also, the Tolerance to rice entry in the data set with rice (setting [5]) is reported as “Tolerance”. Also, in the data set on wheat (postemergence), the Tolerance to wheat result was “Tolerance”. Further, the Tolerance to soybeans entry in the data set on soybeans (preemergence) is “Tolerance”.

Consider `COC(=O)C(C)Oc1cc(Oc2ccc(C(F)(F)F)cc2Cl)ccc1[N+](=O)[O-]` (centres unmarked) [Example 50], for which the pest or weed control at 2241.7 g/ha in the data set on Monocots [1] was 100%; in the data set on Dicots [2], 100%; with Dicots [3], 100%; in the data set on Monocots [4], 98%. Besides, the pest or weed control at 4483.4 g/ha with Monocots [1] amounted to 97%; with Dicots [2] it was 83%; in the data set on Dicots [3] it was 100%; in the data set with Monocots [4] it was 90%. In addition, in the data set on peanuts (preemergence), the Tolerance to peanuts entry is reported as “Tolerance”. Moreover, the Tolerance to wheat result with wheat (preemergence) is listed as “Tolerance”. Besides, the Tolerance to soybeans entry in the data set with soybeans (preemergence) is “Tolerance”.

As to `Cc1cc(Oc2ccc(C(F)(F)F)cc2Cl)ccc1[N+](=O)[O-]` [Example 36, 2-chloro-α,α,α-trifluoro-p-tolyl-4-nitro-m-tolyl ether], the pest or weed control at 2241.7 g/ha was 94% in the data set on Monocots [1], 100% in the data set on Dicots [2], 98% in the data set with Dicots [3] and 100% in the data set on Monocots [4]. Besides, the pest or weed control at 4483.4 g/ha was 87% in the data set with Monocots [1], 100% in the data set on Dicots [2], 100% with Dicots [3] and 93% with Monocots [4]. For the same molecule, the Tolerance to corn result with corn (postemergence) was “Tolerance”. The Tolerance to peanuts entry in the data set on peanuts (postemergence) and in the data set with peanuts (preemergence) was “Tolerance” in each case. For the same molecule, the Tolerance to wheat entry with wheat (postemergence) was “Tolerance”.

As to `CCN(CC)c1cc(Oc2ccc(C(F)(F)F)cc2Cl)ccc1[N+](=O)[O-]` [Example 21, 2-Chloro-α,α,α-trifluoro-p-tolyl-3-diethylamino-4-nitrophenyl ether], the pest or weed control at 2241.7 g/ha with Monocots [1] came to 90%; with Dicots [2] it was 90%; with Dicots [3], 94%; in the data set with Monocots [4], 79%. Also, the pest or weed control at 4483.4 g/ha in the data set on Monocots [1] is 74%; in the data set on Dicots [2] it was 99%; in the data set with Dicots [3], 96%; in the data set with Monocots [4], 91%. In addition, the Tolerance to corn result in the data set with corn (postemergence) and with corn (preemergence) was “Tolerance” in each case. Further, in the data set with peanuts (preemergence), the Tolerance to peanuts result is listed as “Tolerance”. For the same molecule, the Tolerance to rice entry in the data set with rice (preemergence) is given as “Tolerance”. In addition, the Tolerance to wheat result with wheat (postemergence) is on record as “Tolerance”. Also, the Tolerance to soybeans result in the data set on soybeans (preemergence) is recorded as “Tolerance”.

Consider `CSCCOc1cc(Oc2ccc(C(F)(F)F)cc2Cl)ccc1[N+](=O)[O-]` [Example 40], for which the pest or weed control at 2241.7 g/ha with Monocots [1] was 81%; in the data set with Dicots [2], 98%; in the data set on Dicots [3], 100%; with Monocots [4], 88%. Moreover, the pest or weed control at 4483.4 g/ha with Monocots [1] was 64%; with Dicots [2], 92%; with Dicots [3], 100%; with Monocots [4], 86%. For the same molecule, the Tolerance to corn result in the data set with corn (postemergence) and in the data set with corn (preemergence) was “Tolerance” each time. For the same molecule, the Tolerance to peanuts result in the data set with peanuts (postemergence) and in the data set on peanuts (preemergence) was “Tolerance” in each case. Further, the Tolerance to rice entry with rice (setting [5]) and with rice (preemergence) was “Tolerance” in each case. Also, in the data set on wheat (preemergence), the Tolerance to wheat entry was “Tolerance”. Besides, in the data set on soybeans (preemergence), the Tolerance to soybeans result is reported as “Tolerance”.

`CCN(CCO)c1cc(Oc2ccc(C(F)(F)F)cc2Cl)ccc1[N+](=O)[O-]` [Example 54]: the pest or weed control at 2241.7 g/ha came out at 71% with Monocots [1], 98% in the data set with Dicots [2], 100% in the data set with Dicots [3] and 98% with Monocots [4]. In addition, the pest or weed control at 4483.4 g/ha is 79% with Monocots [1], 75% in the data set with Dicots [2], 100% in the data set on Dicots [3] and 83% with Monocots [4]. For the same molecule, the Tolerance to corn result in the data set with corn (postemergence) and in the data set on corn (preemergence) was “Tolerance” in each case. Also, the Tolerance to peanuts result with peanuts (postemergence) is “Tolerance”. The Tolerance to rice result with rice (setting [5]) and with rice (preemergence) was “Tolerance” throughout. The Tolerance to wheat entry in the data set with wheat (postemergence) and in the data set on wheat (preemergence) was “Tolerance” each time. Also, the Tolerance to soybeans result with soybeans (preemergence) was “Tolerance”.

Regarding `CC(=O)Oc1cc(Oc2ccc(C(F)(F)F)cc2Cl)ccc1[N+](=O)[O-]` [Example 18, 2-Chloro-α,α,α-trifluoro-p-tolyl-3-acetoxy-4-nitrophenyl ether], the pest or weed control at 2241.7 g/ha with Monocots [1] was determined as 28%; in the data set with Dicots [2], 100%; in the data set with Dicots [3] it was 98%; in the data set with Monocots [4] it was 99%. The pest or weed control at 4483.4 g/ha in the data set on Monocots [1] is 28%; in the data set on Dicots [2], 100%; in the data set with Dicots [3], 86%; in the data set on Monocots [4] it was 67%. For the same molecule, in the data set on corn (postemergence), the Tolerance to corn result is listed as “Tolerance”. The Tolerance to peanuts entry with peanuts (postemergence) is listed as “Tolerance”. The Tolerance to rice entry in the data set with rice (setting [5]) was “Tolerance”. Moreover, the Tolerance to wheat entry in the data set on wheat (postemergence) and with wheat (preemergence) was “Tolerance” each time. The Tolerance to soybeans entry with soybeans (preemergence) is on record as “Tolerance”.

Regarding `CCNc1cc(Oc2ccc(C(F)(F)F)cc2Cl)ccc1[N+](=O)[O-]` [Example 19, 2-Chloro-α,α,α-trifluoro-p-tolyl-3-ethylamino-4-nitrophenyl ether], the pest or weed control at 2241.7 g/ha in the data set on Monocots [1] was found to be 94%; with Dicots [2], 91%; in the data set on Dicots [3] it was 97%; in the data set with Monocots [4], 77%. The pest or weed control at 4483.4 g/ha with Monocots [1] is 84%; with Dicots [2], 96%; in the data set on Dicots [3] it was 98%; with Monocots [4], 91%. Also, the Tolerance to corn result in the data set on corn (postemergence) and with corn (preemergence) was “Tolerance” in each case. For the same molecule, in the data set with peanuts (preemergence), the Tolerance to peanuts entry is on record as “Tolerance”. For the same molecule, the Tolerance to rice result in the data set on rice (preemergence) is listed as “Tolerance”. Besides, the Tolerance to wheat result in the data set with wheat (preemergence) was “Tolerance”. Moreover, the Tolerance to soybeans entry in the data set on soybeans (preemergence) was “Tolerance”.

Consider `CCC(=O)Nc1cc(Oc2ccc(C(F)(F)F)cc2Cl)ccc1[N+](=O)[O-]` [Example 34], for which the pest or weed control at 2241.7 g/ha in the data set with Monocots [1] was determined as 47%; in the data set on Dicots [2], 85%; in the data set with Dicots [3] it was 90%; in the data set with Monocots [4], 83%. For the same molecule, the pest or weed control at 4483.4 g/ha in the data set on Monocots [1] was determined as 32%; in the data set on Dicots [2], 52%; in the data set on Dicots [3] it was 89%; in the data set with Monocots [4], 35%. Further, the Tolerance to corn result in the data set on corn (postemergence) and with corn (preemergence) was “Tolerance” in each case. Further, the Tolerance to peanuts result with peanuts (postemergence) and in the data set with peanuts (preemergence) was “Tolerance” each time. In addition, the Tolerance to rice entry with rice (setting [5]) and in the data set on rice (preemergence) was “Tolerance” throughout. In addition, the Tolerance to wheat result in the data set on wheat (postemergence) and in the data set with wheat (preemergence) was “Tolerance” each time. For the same molecule, the Tolerance to soybeans entry in the data set with soybeans (postemergence or layby) and in the data set with soybeans (preemergence) was “Tolerance” in each case.
